Here are results for one compound from patent US20240108740A1, “THERAPEUTIC COMPOSITIONS INCLUDING SPN10 AND USES THEREOF” (Stealth BioTherapeutics Inc., priority 2022, published 2024).

One assay deals with Sprague Dawley rats. Put plainly: Example 37: acute renal injury caused by ischemia-reperfusion. The assay is classed as in vivo, rat. The procedure:
[…] Sprague Dawley rats (250-300 g) will be assigned to one of the following groups: (1) sham surgery (no I/R); (2) I/R+saline vehicle; (3) I/R+peptide conjugates; (4) I/R+aromatic-cationic peptides; (5) I/R+SPN10(s); (6) I/R+SPN10(s) and aromatic-cationic peptides. Peptide conjugates (3 mg/kg in saline); aromatic-cationic peptides (an equivalent molar dose of aromatic-cationic peptide based on the concentration of the aromatic-cationic peptide administered in the peptide conjugate treatment group); SPN10(s) (an equivalent molar dose of SPN10 based on the concentration of SPN10 administered in the peptide conjugate treatment group) or SPN10(s) in combination with aromatic-cationic peptides (e.g., an equivalent molar dose of SPN10 based on the concentration of SPN10 administered in the peptide conjugate treatment group and an equivalent molar dose of aromatic-cationic peptide based on the concentration of aromatic-cationic peptide administered in the peptide conjugate treatment group) will be administered 30 minutes before ischemia and immediately before reperfusion. Control animals will be given saline alone according to the same schedule.
Rats will be anesthetized with a mixture of ketamine (90 mg/kg, i.p.) and xylazine (4 mg/kg, i.p.). […] Renal function will be determined by measuring levels of blood urea nitrogen (BUN) and serum creatinine (BioAssay Systems DIUR-500 and DICT-500).
Renal Morphologic Examination: Kidneys will be fixed in 10% neutral-buffered formalin and embedded in paraffin wax for sectioning. Three-micron sections will be stained with hematoxylin-eosin (H&E) and periodic acid-Schiff (PAS), and analyzed by light microscopy. Lesions will be scored based on 1) mitosis and necrosis of individual cells, 2) necrosis of all cells in adjacent proximal convoluted tubules with survival of surrounding tubules, 3) necrosis confined to the distal third of the proximal convoluted tubule with a band of necrosis extending across the inner cortex, and 4) necrosis affecting all three segments of the proximal convoluted tubule. […]

The test system of the next assay is vincristine-related pain. Put plainly: Treatment of vincristine-induced hyperalgesia in humans. The assay is classed as in vivo, human. Conditions: s.c., once daily for 14 days. From the text: Patients will be recruited to the study as they present in clinic with chronic (>6 months' duration), spontaneous, ongoing, vincristine-related pain. Those enrolled will rate their daily maximum level of pain at 4 or greater on a visual analogue scale (VAS). The patients will be screened for their willingness to enroll in the study, and informed consent will be obtained. Healthy subjects will also be recruited for collection of comparison data. No subjects in either the patient or comparison group will have known risk factors for any other cause of peripheral neuropathy, including diabetes, AIDS, chronic alcoholism, or previous radiation exposure. […] Touch and Sharpness Detection Thresholds-Touch detection thresholds will be determined with von Frey monofilaments using the up/down method as previously reported. […] The force of the filament detected four consecutive times will be assigned as the touch detection threshold. Sharpness detection will be determined using weighted 30-gauge metal cylinders. […] The percentages of each reply will be calculated and then combined into group grand means for comparison. The 50% sharpness detection threshold will be calculated as the weighted needle that caused five or more sharp responses after 10 consecutive stimuli. Grooved Pegboard Test-Manual dexterity will be assessed with the grooved pegboard test. […]

SMILES strings stand for the structures. Residues, ends and D or L forms follow the SMILES beside them.

Turning to `N=C(N)NCCC[C@H](NC(=O)[C@@H](N)Cc1c[nH]c2ccccc12)C(=O)N[C@@H](Cc1c[nH]c2ccccc12)C(=O)N[C@@H](CCCCN)C(N)=O` [SPN10, H-L-Trp-L-Arg-L-Trp-L-Lys-NH2] (H-WRWK-NH2), the “BUN and serum creatinine values” with Sprague Dawley rats (30 minutes before ischemia and immediately before reperfusion, 24 hours of reperfusion) was “improve BUN and serum creatinine values”. Also, in the assay on Sprague Dawley rats (rat, in vivo), the “tubular cell apoptosis after ischemia and reperfusion” value is given as “prevent tubular cell apoptosis”; the “tubular cell injury after ischemia and reperfusion” value is recorded as “prevent tubular cell injury”. The hyperalgesia symptoms entry in the assay with vincristine-related pain is listed as “reduction”.
